These results are taken from publication PMC7297817, “Pharmacological Characterization of a Betaine/GABA Transporter 1 (BGT1) Inhibitor Displaying an Unusual Biphasic Inhibition Profile and Anti-seizure Effects” (Neurochemical Research, 2020).

Read-outs that look alike come from different tables or passages of the source.

One experiment has as its target T1, Alpha2A (Homo sapiens, UniProt P08913).
T1 construct: purchased NIMH Psychoactive Drug Screening Program (PDSP)
Briefly: NIMH PDSP radioligand binding, Alpha2A. Conditions: radioligand [3H]rauwolscine, n=4.

The next experiment concerns the target T2, 5-HT2A (Homo sapiens, UniProt P28223).
T2 construct: purchased NIMH Psychoactive Drug Screening Program (PDSP)
Briefly: NIMH PDSP radioligand binding, 5-HT2A. Conditions: radioligand [3H]ketanserin, n=4.

The target in another experiment is T3, 5-HT6 (Homo sapiens, UniProt P50406).
T3 construct: NIMH PDSP (screening service)
T3 sequence (P50406 whole entry, species assumed): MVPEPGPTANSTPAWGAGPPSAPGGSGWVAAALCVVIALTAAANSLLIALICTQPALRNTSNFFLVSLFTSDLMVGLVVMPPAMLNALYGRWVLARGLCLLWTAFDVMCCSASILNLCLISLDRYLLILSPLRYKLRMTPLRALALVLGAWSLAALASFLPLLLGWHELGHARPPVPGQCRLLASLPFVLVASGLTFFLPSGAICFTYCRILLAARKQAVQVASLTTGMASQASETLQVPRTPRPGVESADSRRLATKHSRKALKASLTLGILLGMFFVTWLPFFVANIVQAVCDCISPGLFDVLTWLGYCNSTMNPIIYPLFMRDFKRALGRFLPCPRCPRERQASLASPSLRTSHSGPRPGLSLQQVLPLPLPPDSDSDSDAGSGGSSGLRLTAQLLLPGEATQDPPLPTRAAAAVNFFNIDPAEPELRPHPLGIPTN
Briefly: NIMH PDSP radioligand binding, 5-HT6. Conditions: radioligand [3H]LSD, n=4.

For another experiment, the system named is BZP rat brain. Briefly: NIMH PDSP radioligand binding, BZP rat brain. Conditions: 10 μM; radioligand [3H]Flunitrazepam; n=4. As to the method:
IC50 values in μM (Ki μM)^a. The targets in bold were inhibited by >35% at 10 μM.

The next experiment concerns the target T4, Beta1 (Homo sapiens, UniProt P08588).
T4 construct: purchased NIMH Psychoactive Drug Screening Program (PDSP)
The experiment can be described thus: NIMH PDSP radioligand binding, Beta1. Conditions: radioligand [125I]pindolol, n=4.

A further experiment deals with T5, hBGT1 (Homo sapiens, UniProt P48065).
T5 construct: expressed in transfected cells; host or cells: tsA201 (transient)
T5 sequence (P48065 1-614): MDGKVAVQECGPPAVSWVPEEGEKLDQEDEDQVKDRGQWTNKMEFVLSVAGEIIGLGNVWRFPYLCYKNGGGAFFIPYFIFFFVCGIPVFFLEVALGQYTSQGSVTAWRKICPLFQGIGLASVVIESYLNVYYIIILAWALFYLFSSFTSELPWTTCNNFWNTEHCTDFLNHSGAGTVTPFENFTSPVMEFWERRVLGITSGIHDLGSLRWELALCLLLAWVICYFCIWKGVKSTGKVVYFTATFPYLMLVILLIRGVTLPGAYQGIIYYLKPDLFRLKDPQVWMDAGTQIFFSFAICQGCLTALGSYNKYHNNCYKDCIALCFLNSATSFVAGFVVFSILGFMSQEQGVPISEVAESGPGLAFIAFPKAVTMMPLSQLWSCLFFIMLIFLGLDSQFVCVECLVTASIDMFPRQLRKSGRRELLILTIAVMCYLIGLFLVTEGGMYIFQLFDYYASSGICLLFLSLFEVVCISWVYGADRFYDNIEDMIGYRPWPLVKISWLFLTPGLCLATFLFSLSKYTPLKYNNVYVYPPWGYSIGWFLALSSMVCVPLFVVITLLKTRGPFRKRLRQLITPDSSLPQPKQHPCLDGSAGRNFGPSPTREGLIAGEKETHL
Briefly: [3H]GABA uptake at hBGT1 stably expressed in CHO cells. The class given is cell-based. As to the method:
(§1) The HEK-293 and Flp-In CHO cell lines stably expressing mouse (m) and human (h) GATs, respectively, have been described previously and were cultured accordingly. The tsA201 cell line was used for transient expression while the MDCK II cell line express BGT1 endogenously. Both cell lines were cultured as described. tsA201 cells were transfected with DNA constructs (8 μg per 10 cm dish if not otherwise mentioned) using 40 μL PolyFect transfection reagent according to the manufacturer’s protocol (Qiagen, Venlo, Netherlands). The DNA constructs encoding hBGT1, hGAT1-3 [36], the mutated constructs hBGT1 Q299 and hGAT3 L314Q described previously, and hBGT Y453A were synthesized and sequence validated by Genscript (NJ, USA).
(§2) The [^3H]GABA competition uptake assay was performed as previously described. A minor change, however, was introduced for uptake in MDCK II cells, in which 100 nM [^3H]GABA was used for a 15 min incubation period at 37 °C instead of 30 nM [^3H]GABA and 3 min incubation. Studies related to the inhibition curves with GABA and BPDBA at hBGT1 were obtained both with and without the presence of 10 μM ATP during the [^3H]GABA uptake assay.
The [^3H]GABA uptake data was normalized to the percentage of total uptake in the individual experiments in the presence of the lowest compound concentration or no compound present. Data presented is the pooled data of at least three independent experiments with three technical replicates. Concentration–response curves (CRCs) were fitted with GraphPad Prism (version 8.2.1, Yosemite, GraphPad Software, San Diego, CA, USA) by non-linear regression to the sigmoidal concentration response model: Y=Bottom+(Top-Bottom)/1+10^LogIC50-X∗nH where Top is the Top plateau, Bottom is the Bottom plateau, X is the logarithm of the concentration of the compound, LogIC50 is the concentration giving a response halfway between Top and Bottom,and nH is the Hill slope.
The best fit for CRCs obtained with the [^3H]GABA uptake assay was identified by the extra-sum-of-squares F test (for convenience referred to as F test).

The target in another experiment is T6, M3 (Homo sapiens, UniProt P20309).
T6 construct: purchased NIMH Psychoactive Drug Screening Program (PDSP)
T6 sequence (P20309 whole entry): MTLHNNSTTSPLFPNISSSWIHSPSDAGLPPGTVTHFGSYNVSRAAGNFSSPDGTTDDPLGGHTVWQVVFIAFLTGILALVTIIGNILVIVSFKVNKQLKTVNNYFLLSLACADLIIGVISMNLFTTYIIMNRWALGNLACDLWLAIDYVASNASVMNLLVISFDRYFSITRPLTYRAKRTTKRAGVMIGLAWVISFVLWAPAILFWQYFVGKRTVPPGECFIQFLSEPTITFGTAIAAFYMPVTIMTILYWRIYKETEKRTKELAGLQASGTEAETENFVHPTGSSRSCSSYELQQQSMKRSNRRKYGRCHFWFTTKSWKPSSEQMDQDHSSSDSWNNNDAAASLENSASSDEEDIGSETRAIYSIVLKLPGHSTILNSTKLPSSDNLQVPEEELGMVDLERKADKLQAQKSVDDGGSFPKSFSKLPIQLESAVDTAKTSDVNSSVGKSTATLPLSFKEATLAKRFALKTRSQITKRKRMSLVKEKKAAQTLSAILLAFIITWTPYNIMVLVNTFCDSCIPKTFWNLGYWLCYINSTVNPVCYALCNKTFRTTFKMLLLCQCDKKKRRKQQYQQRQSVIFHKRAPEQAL
The experiment can be described thus: NIMH PDSP radioligand binding, M3.

For a further experiment, the target named is T7, D1 (Homo sapiens, UniProt P21728).
T7 construct: purchased NIMH Psychoactive Drug Screening Program (PDSP)
T7 sequence (P21728 whole entry): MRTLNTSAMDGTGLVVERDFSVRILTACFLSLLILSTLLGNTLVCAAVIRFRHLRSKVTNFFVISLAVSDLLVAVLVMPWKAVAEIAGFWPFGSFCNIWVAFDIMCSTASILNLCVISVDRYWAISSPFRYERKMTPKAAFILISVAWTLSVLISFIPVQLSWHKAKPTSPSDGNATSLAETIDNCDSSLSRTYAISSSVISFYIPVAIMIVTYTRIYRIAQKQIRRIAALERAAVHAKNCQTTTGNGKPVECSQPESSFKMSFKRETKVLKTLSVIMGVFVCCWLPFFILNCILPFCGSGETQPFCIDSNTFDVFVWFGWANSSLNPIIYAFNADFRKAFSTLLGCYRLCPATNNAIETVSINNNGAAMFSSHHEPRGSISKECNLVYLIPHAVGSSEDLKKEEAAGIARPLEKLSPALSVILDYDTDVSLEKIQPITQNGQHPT
The experiment can be described thus: NIMH PDSP radioligand binding, D1. Conditions: radioligand [3H]SCH23390, n=4.

For a further experiment, the target named is T8, hGAT3 (Homo sapiens, UniProt P48066).
T8 construct: expressed in transfected cells
T8 sequence (P48066 1-632): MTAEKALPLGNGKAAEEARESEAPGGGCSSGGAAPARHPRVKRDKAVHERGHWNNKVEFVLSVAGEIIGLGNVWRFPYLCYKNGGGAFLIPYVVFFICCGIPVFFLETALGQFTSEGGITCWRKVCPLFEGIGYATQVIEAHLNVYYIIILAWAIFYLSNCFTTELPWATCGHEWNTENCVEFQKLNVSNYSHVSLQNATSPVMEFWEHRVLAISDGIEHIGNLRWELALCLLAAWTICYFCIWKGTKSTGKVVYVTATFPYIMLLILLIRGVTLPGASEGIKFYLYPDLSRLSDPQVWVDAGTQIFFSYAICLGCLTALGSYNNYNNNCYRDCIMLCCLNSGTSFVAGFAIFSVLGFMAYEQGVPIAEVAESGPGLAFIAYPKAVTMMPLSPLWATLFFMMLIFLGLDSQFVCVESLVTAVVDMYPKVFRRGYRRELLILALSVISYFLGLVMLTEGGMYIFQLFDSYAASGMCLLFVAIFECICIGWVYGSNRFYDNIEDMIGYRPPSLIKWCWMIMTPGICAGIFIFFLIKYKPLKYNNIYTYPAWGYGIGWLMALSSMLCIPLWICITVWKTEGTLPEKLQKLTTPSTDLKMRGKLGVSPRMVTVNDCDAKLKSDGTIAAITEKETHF
The experiment can be described thus: [3H]GABA uptake at hGAT3 transiently expressed in tsA201 cells. It counts as cell-based. Conditions: 30 nM [3H]GABA, 3 min, F test P < 0.05. On the procedure:
as §1, §2
The [^3H]GABA uptake data was normalized to the percentage of total uptake in the individual experiments in the presence of the lowest compound concentration or no compound present. […]

The next experiment addresses T9, 5-HT5A (Homo sapiens, UniProt P47898).
T9 construct: purchased NIMH Psychoactive Drug Screening Program (PDSP)
The experiment can be described thus: NIMH PDSP radioligand binding, 5-HT5A. Conditions: radioligand [3H]LSD, n=4.

Another experiment has as its target T10, M4 (Homo sapiens, UniProt P08173).
T10 construct: purchased NIMH Psychoactive Drug Screening Program (PDSP)
Briefly: NIMH PDSP radioligand binding, M4.

T4 sequence (P08588 whole entry): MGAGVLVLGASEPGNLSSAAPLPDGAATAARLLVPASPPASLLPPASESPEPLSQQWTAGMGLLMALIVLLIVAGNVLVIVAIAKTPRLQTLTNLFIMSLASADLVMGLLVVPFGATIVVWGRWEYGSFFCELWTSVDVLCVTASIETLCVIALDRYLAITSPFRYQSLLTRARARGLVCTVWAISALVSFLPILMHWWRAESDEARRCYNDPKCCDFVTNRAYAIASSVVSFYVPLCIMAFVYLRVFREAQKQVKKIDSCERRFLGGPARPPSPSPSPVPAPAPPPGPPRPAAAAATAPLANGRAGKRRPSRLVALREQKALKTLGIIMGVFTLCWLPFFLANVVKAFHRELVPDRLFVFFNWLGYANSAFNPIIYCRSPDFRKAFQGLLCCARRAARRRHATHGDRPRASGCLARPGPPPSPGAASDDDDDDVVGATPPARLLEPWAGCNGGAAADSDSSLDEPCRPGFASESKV
T10 sequence (P08173 whole entry): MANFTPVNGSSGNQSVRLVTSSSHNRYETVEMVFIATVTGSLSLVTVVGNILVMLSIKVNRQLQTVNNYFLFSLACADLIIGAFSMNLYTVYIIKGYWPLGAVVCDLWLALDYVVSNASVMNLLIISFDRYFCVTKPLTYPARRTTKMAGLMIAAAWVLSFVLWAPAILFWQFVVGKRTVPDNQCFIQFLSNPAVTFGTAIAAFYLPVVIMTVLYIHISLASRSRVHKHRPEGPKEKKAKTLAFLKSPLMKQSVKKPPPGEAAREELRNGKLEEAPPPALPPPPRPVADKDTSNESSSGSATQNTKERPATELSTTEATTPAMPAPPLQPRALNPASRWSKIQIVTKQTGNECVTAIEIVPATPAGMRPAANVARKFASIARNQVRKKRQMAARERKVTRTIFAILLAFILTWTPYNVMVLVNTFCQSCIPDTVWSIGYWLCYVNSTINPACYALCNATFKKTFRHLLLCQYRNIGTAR
T9 sequence (P47898 whole entry): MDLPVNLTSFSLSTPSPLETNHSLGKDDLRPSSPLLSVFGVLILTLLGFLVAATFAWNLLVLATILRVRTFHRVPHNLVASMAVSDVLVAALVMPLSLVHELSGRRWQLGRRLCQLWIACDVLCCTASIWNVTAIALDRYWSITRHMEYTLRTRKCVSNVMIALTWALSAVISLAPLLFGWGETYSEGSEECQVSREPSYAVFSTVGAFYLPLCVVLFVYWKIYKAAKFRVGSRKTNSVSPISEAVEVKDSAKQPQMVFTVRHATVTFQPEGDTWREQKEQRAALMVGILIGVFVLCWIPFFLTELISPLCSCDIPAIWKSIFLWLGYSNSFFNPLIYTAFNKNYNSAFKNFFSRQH
T1 sequence (P08913 whole entry): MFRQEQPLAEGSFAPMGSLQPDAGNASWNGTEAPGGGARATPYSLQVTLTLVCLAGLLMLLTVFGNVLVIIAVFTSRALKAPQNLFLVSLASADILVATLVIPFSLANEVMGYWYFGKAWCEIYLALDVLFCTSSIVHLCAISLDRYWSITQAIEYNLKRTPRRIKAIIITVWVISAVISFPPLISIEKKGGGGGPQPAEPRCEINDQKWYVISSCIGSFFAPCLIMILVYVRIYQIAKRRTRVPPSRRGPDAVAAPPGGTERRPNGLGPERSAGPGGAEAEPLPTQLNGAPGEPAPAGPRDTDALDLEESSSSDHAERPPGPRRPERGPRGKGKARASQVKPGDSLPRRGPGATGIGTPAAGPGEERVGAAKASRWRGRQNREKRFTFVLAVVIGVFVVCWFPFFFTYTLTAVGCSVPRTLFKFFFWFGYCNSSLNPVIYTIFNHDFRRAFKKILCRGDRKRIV
T2 sequence (P28223 whole entry): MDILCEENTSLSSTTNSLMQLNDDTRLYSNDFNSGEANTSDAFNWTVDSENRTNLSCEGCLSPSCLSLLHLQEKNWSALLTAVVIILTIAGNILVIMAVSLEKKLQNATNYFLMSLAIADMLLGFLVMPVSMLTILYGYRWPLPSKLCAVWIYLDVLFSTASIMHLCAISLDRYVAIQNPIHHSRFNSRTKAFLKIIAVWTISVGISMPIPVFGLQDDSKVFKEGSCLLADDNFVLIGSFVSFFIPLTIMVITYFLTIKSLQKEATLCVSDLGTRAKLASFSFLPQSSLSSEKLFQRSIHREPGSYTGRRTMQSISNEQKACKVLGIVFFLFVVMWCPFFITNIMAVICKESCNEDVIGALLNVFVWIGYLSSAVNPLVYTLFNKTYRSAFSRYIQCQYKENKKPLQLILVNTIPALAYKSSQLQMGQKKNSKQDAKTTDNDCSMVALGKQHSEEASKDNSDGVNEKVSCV

Consider `Cc1ccsc1C(=CCCN(C)[C@H]1CCCC[C@H]1C(=O)O)c1sccc1C` [SBV2-114, (1R,2S)-2-((4,4-bis(3-methylthiophen-2-yl)but-3-en-yl)(methyl)amino)cyclohexanecarboxylic acid], for which the inhibition at 10 µM turned out to be 42.8% on Alpha2A; 20% at 5-HT2A; 50% on 5-HT6; 37.9% on Beta1; 55.4% at M3; 14% on D1. Also, the inhibition at 10 µM at 5-HT5A was 36.6%; at M4 it was -5.7%. Also, the “% inhibition” value in the experiment on BZP rat brain is 9.1%. The IC50 against hBGT1 (IC50, high affinity component, biphasic fit, N=2 of four experiments, CHO) is 0.05 µM; at hBGT1 (pIC50 ± S.E.M., high affinity component, biphasic fit, N=2, CHO), 0.0513 µM; at hBGT1 (read-out: IC50, low affinity component, biphasic fit, N=2, CHO), 490 µM; at hBGT1 (single IC50, N=2, fit not given, CHO, read-out: IC50), 447 µM. The same compound returned a Frac at hBGT1 (biphasic fit, N=2, CHO) of 0.10. Also, the Fit entry on hBGT1 (preferred model, N=2) is “Biphasic”. In addition, the preferred fit result on hGAT3 is listed as “biphasic fit”.
